The values that follow come from publication PMC3669347, “A Multi-System Approach Assessing the Interaction of Anticonvulsants with P-gp” (PLoS ONE, 2013).

Data set [1] concerns human P-gp. As to conditions: cited from earlier work; for Substrate of P-gp (published evidence): Transfected human P-gp cell lines, equilibrium.
Data set [2] concerns the target T1, P-gp (Homo sapiens, UniProt P08183). In words: X. laevis oocyte P-gp drug transport assay (efflux and accumulation). To be noted: for Accumulation in oocytes expressing human P-gp vs water-injected oocytes: 20µM drug ±40µM PSC833, 1 hour; for Accumulation in oocytes expressing human P-gp vs water-injected oocytes / Efflux from P-gp injected oocytes vs water-injected oocytes: 22°C; for Interaction with P-gp observed: Xenopus laevis oocytes expressing human P-gp; for Efflux from P-gp injected oocytes vs water-injected oocytes: intra-oocyte 1µM digoxin or 5µM phenytoin, 45 minutes.

In data set [3] the target is T1, P-gp. The arrangement: induced multi-drug resistance through over-expression of P-gp; endogenous in cells; host or cells: CEM (low P-gp) and VBL100 (vinblastine-selected, high P-gp) cells; method as in PMID 12954800. To be noted: LLC-PK1-P-gp cells, 100µM drug; cited from earlier work.
Data set [4] deals with T1, P-gp. In words: Concentration equilibrium transport assay in MDCKII±P-gp cells. As to conditions: for Transport into the apical compartment, MDCKII-P-gp vs parental MDCKII cells: 5µM drug, 6 hour time course, ±300nM tariquidar; for Interaction with P-gp observed: MDCK±P-gp (equilibrium method).
For data set [5], the target named is T2, P-gp (Sus scrofa, UniProt K7GMM7). In words: Permeability assay in primary porcine brain endothelial cells (PBECs). To be noted: for Effect of verapamil or tariquidar treatment on apical to basolateral Papp: 6µM drug, 1 hour, 100µM verapamil, 300nM tariquidar; for Interaction with P-gp observed: Primary porcine brain endothelial. The data set is classed as in vitro ADME. Here is the method:
The porcine brain microvessel isolation and culture protocol was based on previously published papers, [29]with modifications. Briefly, brains from six pigs (Cheale Meats Ltd., Brentwood, UK) were washed. The grey matter was homogenised, filtered, digested, centrifuged and microvessels cryopreserved.
The PBECs were seeded onto rat-tail collagen/fibronectin-coated transwell filter inserts at a density of 1×10^5cells/cm^2. […] This was conducted to elevate intracellular cAMP and thereby encourage differentiation of BBB phenotype including tight junctions. Cell monolayers were used when TEER exceeded 340 Ω.cm^2. For permeability assays, DMEM without phenol red with added HEPES (25mM) and 0.1% BSA was pH adjusted to 7.4 and used as transport medium. […] Samples were taken from both compartments.Apparent permeability (Papp) in cm/s for the compounds studied was calculated as previously described.

The target in data set [6] is T1, P-gp. As to the kind of experiment: Cellular accumulation assay in CEM and VBL100 cells. As to conditions: for Accumulation in VBL100 cells compared with CEM cells / Effect of tariquidar on accumulation in VBL100 cells: 5µM drug, 30 minutes; for Effect of tariquidar on accumulation in VBL100 cells: 300nM tariquidar; for Interaction with P-gp observed: CEM/VBL cells.

For data set [7], the system named is P-gp. To be noted: cited from earlier work.
The subject of data set [8] is P-gp. To be noted: cited from earlier work. The source holds these as a separate data set.
The subject of data set [9] is P-gp. To be noted: Microdialysis/brain access in rodent models; cited from earlier work.
Data set [10] has as its system P-gp. To be noted: cited from earlier work; for Substrate of P-gp (published evidence): MDR1 KO Mouse; for Brain accumulation affected by rodent P-gp: MDR1 knockout mice.
The subject of data set [11] is human P-gp. To be noted: Transfected human P-gp cell lines; bi-directional transwell; cited from earlier work.
Data set [12] has as its target T2, P-gp. The arrangement: method as in PMID 12954800. To be noted: porcine brain endothelial cells, cited from earlier work.
Data set [13] addresses T1, P-gp. To be noted: for Effect of tariquidar on accumulation in hCMEC/D3 cells: 5µM drug, 30 minutes, 300nM tariquidar; for Interaction with P-gp observed: Human brain endothelial cell line (hCMEC/D3).
Experimental: Cells were equilibrated in transport buffer (HBSS containing 25mM HEPES and 0.1% (w/v) bovine serum albumin at pH 7.4) at 37°C with accumulation assays performed as previously described [24], [25].
The next data set has as its system mouse P-gp. To be noted: Transfected mouse P-gp cell line; bi-directional transwell method; cited from earlier work.
The target in data set [14] is T1, P-gp. On the set-up: induced multi-drug resistance through over-expression of P-gp; endogenous in cells; host or cells: CEM (low P-gp) and VBL100 (vinblastine-selected, high P-gp) cells; method as in PMID 11318771, PMID 16882549. As to conditions: Caco-2 bi-directional transwell; cited from earlier work.
For data set [15], the target named is T1, P-gp. As to the kind of experiment: Concentration equilibrium transport assay in LLC-PK1±P-gp cells. As to conditions: for Transport into the apical compartment, LLC-PK1-P-gp vs parental LLC-PK1 cells: 5µM drug, 6 hour time course, ±300nM tariquidar; for Interaction with P-gp observed: LLC-PK1±P-gp (equilibrium method).
Data set [16] concerns the target T1, P-gp. In words: Concentration equilibrium transport assay in Caco-2 cells. To be noted: for Polarised transport in Caco-2 concentration equilibrium assay: 5µM drug, 4 hour time course, ±300nM tariquidar; for Interaction with P-gp observed: Caco-2 (equilibrium method). Background: Caco-2 monolayers are a common model of the intestinal barrier.
Data set [17] deals with T1, P-gp. The arrangement: induced multi-drug resistance through over-expression of P-gp; endogenous in cells; host or cells: CEM (low P-gp) and VBL100 (vinblastine-selected, high P-gp) cells. As to conditions: cited from earlier work.
In data set [18] the target is T1, P-gp. On the set-up: induced multi-drug resistance through over-expression of P-gp; endogenous in cells; host or cells: CEM (low P-gp) and VBL100 (vinblastine-selected, high P-gp) cells; method as in PMID 17326793. To be noted: Primary epileptic derived human brain endothelial cells; cited from earlier work.
For data set [19], the target named is T1, P-gp. The arrangement: induced multi-drug resistance through over-expression of P-gp; endogenous in cells; host or cells: CEM (low P-gp) and VBL100 (vinblastine-selected, high P-gp) cells; method as in PMID 17326793. As to conditions: Primary human brain endothelial cells; cited from earlier work.

Structures are written as SMILES. Read-outs that look alike come from different tables or passages of the source.

T1 sequence (P08183 whole entry): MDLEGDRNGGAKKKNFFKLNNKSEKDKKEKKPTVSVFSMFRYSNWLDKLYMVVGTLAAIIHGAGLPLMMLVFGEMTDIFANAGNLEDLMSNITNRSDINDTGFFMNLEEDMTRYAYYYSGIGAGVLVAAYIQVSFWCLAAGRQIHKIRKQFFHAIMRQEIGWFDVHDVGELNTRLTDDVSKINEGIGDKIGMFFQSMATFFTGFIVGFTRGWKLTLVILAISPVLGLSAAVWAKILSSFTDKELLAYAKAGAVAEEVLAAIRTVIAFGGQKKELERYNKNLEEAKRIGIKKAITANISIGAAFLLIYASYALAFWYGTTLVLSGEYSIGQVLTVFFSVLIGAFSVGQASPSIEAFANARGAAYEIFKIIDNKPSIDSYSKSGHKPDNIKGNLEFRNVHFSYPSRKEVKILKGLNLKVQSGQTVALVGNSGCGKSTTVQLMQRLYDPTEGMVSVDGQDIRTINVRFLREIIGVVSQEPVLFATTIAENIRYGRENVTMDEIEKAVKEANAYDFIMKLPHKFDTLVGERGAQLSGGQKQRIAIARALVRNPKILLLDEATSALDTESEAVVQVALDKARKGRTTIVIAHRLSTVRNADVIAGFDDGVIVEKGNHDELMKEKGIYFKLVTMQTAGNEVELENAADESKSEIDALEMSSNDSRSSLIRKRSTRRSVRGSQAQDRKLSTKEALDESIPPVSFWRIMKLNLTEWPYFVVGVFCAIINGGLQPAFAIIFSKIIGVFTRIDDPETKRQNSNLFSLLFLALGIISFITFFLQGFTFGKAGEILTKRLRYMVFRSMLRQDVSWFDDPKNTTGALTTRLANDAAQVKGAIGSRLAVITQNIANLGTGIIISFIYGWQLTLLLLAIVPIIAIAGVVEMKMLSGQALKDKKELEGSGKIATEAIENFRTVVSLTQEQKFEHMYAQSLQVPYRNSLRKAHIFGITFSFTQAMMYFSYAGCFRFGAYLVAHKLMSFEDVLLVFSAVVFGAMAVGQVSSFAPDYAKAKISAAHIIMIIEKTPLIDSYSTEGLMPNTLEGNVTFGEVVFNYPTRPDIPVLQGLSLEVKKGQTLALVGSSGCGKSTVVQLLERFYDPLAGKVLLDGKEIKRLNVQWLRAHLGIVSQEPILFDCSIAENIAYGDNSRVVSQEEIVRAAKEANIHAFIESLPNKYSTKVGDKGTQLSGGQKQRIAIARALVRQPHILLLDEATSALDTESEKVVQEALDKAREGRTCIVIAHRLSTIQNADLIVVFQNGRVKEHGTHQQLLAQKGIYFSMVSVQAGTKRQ
T2 sequence (K7GMM7 1-1248): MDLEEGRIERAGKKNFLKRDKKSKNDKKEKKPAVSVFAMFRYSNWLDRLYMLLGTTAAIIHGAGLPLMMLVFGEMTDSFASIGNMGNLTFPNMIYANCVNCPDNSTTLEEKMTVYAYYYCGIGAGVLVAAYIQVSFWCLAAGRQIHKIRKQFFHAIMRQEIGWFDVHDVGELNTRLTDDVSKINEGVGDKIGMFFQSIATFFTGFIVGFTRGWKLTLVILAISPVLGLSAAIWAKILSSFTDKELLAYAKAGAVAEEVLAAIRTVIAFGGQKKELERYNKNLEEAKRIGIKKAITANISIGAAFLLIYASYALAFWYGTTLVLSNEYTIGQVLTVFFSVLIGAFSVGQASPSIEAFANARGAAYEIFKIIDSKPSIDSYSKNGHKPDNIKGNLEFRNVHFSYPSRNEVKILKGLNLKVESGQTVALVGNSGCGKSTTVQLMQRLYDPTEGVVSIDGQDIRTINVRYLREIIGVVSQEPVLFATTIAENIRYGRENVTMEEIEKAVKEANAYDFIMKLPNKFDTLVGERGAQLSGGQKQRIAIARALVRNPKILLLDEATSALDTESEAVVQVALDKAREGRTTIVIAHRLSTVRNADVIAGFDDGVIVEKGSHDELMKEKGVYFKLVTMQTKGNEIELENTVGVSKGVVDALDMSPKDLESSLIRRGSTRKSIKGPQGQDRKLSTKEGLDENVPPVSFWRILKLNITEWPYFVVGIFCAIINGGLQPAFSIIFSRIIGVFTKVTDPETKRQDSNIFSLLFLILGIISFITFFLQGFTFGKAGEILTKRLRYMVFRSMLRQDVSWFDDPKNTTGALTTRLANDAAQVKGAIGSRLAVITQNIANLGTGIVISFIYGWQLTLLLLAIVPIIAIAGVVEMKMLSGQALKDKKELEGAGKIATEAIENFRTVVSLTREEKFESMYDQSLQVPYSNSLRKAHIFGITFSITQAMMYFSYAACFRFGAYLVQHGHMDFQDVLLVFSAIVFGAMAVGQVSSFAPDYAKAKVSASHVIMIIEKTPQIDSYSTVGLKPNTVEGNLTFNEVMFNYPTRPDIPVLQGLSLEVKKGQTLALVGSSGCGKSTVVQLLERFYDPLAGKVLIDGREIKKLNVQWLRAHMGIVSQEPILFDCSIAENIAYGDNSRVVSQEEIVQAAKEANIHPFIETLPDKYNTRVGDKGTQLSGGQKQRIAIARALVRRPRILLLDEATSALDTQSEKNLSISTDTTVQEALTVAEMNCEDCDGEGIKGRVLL

As for `NC(=O)N1c2ccccc2C2OC2c2ccccc21` (centres unmarked) [carbamazepine-10,11-epoxide], the “Transport by P-gp, concentration equilibrium approach” value in the data set on human P-gp [1] is given as “does transport”.

Regarding `NC(=O)N1c2ccccc2C=Cc2ccccc21` [carbamazepine], the “Accumulation in oocytes expressing human P-gp vs water-injected oocytes” value on P-gp [2] is “No differences”. Further, the “Interaction with P-gp observed” value on P-gp [2], at P-gp [4], on P-gp [5], on P-gp [6], on P-gp [13] and on P-gp [15] was “No” in each case. The “Interaction with P-gp observed” value at P-gp [16] is “No”. For the same molecule, on P-gp [3], the “Inhibition of the uptake of the P-gp substrate” value is recorded as “no inhibition”. Also, the “Substrate of P-gp (published evidence)” value is “No” in the data set with human P-gp [1]; “Yes” in the data set with P-gp [9]; “No” with P-gp [10]; “No” in the data set with human P-gp [11]; “No” in the data set with mouse P-gp; “No” at P-gp [14]. Also, the “Transport by P-gp, concentration equilibrium approach” value with human P-gp [1] is “does not transport”. For the same molecule, the “Transport into the apical compartment, MDCKII-P-gp vs parental MDCKII cells” value at P-gp [4] is “no difference”. The “Effect of verapamil or tariquidar treatment on apical to basolateral Papp” value on P-gp [5] is recorded as “decrease”. In addition, the “Accumulation in VBL100 cells compared with CEM cells” value at P-gp [6] is “significantly higher accumulation”. In addition, at P-gp [6], the “Effect of tariquidar on accumulation in VBL100 cells” value is recorded as “not inhibited by tariquidar”. Further, the “Stimulation of P-gp ATPase activity (published evidence)” value with P-gp [7] was “No”. In addition, the “Calcein-AM P-gp inhibition assay (published evidence)” value in the data set with P-gp [8] is reported as “No”. Further, in the data set on P-gp [10], the “Brain accumulation affected by rodent P-gp” value was “not”. Moreover, the “Inhibition of uptake of calcein AM” value on P-gp [12] (10µM) is reported as “not at 10µM”; on P-gp [12] (100µM), “able to inhibit”. In addition, the “Effect of tariquidar on accumulation in hCMEC/D3 cells” value on P-gp [13] was “No effect of tariquidar”. Moreover, the “Transport into the apical compartment, LLC-PK1-P-gp vs parental LLC-PK1 cells” value at P-gp [15] is recorded as “no transport”. Also, the “Polarised transport in Caco-2 concentration equilibrium assay” value (“Polarised transport” below) on P-gp [16] is listed as “No polarised transport”.

`Cc1ccc(NC(=O)c2ccc(CN3CCN(C)CC3)cc2)cc1Nc1nccc(-c2cccnc2)n1` [imatinib]: the “Identified as P-gp substrate with CEM and VBL100 cells” value on P-gp [17] is reported as “P-gp substrates”.

For `CC1(C)CCC(c2ccc(Cl)cc2)=C(CN2CCN(c3ccc(C(=O)NS(=O)(=O)c4ccc(N[C@H](CCN5CCOCC5)CSc5ccccc5)c(S(=O)(=O)C(F)(F)F)c4)cc3)CC2)C1` [ABT-263], the “Identified as P-gp substrate with CEM and VBL100 cells” value on P-gp [17] is recorded as “P-gp substrates”.

In the case of `C[C@H]1O[C@@H](O[C@H]2[C@@H](O)C[C@H](O[C@H]3[C@@H](O)C[C@H](O[C@H]4CC[C@@]5(C)[C@H](CC[C@@H]6[C@@H]5C[C@@H](O)[C@]5(C)[C@@H](C7=CC(=O)OC7)CC[C@]65O)C4)O[C@@H]3C)O[C@@H]2C)C[C@H](O)[C@@H]1O` [digoxin], the “P-gp substrate status in oocyte expression system” value on P-gp [2] (imatinib data not shown) is on record as “confirmed to be substrates”. Also, the “Efflux from P-gp injected oocytes vs water-injected oocytes” value on P-gp [2] is “higher efflux”. In addition, on P-gp [2] (intra-oocyte 1µM digoxin, 40µM PSC833), the “Effect of PSC-833 on efflux from P-gp injected oocytes” value is “reduced”. Also, at P-gp [4], the “Transport into the apical compartment, MDCKII-P-gp vs parental MDCKII cells” value was “significant increase in apical concentration”. Besides, on P-gp [6], the “Accumulation in VBL100 cells compared with CEM cells” value is “less accumulation” and the “Effect of tariquidar on accumulation in VBL100 cells” value is reported as “tariquidar restored accumulation”. The “Transport into the apical compartment, LLC-PK1-P-gp vs parental LLC-PK1 cells” value on P-gp [15] was “significantly higher transport”. For the same molecule, at P-gp [16], the “Polarised transport” value was “transported into the apical compartment and this was inhibited by tariquidar”.

Turning to `Nc1nnc(-c2cccc(Cl)c2Cl)c(N)n1` [lamotrigine], the “Inhibition by tariquidar of P-gp mediated transport” value in the data set with human P-gp [1] (LLC-PK1-P-gp, concentration equilibrium approach, ref 18 (Luna-Tortos et al)) is 60%. In addition, the “Brain accumulation affected by rodent P-gp” value with P-gp [10] is reported as “not”.

Take `O=C1NC(=O)C(c2ccccc2)(c2ccccc2)N1` [phenytoin]: the “Accumulation in oocytes expressing human P-gp vs water-injected oocytes” value on P-gp [2] is recorded as “No differences”. In addition, the “Interaction with P-gp observed” value at P-gp [2] is “No”; at P-gp [4], “Yes –“weak””; at P-gp [5] it was “No”; at P-gp [6], “No”; on P-gp [13] it was “No”; at P-gp [15] it was “Yes –“weak””. In addition, the “Interaction with P-gp observed” value at P-gp [16] is listed as “No”. Moreover, the “Efflux from P-gp injected oocytes vs water-injected oocytes” value at P-gp [2] is recorded as “No difference”. Moreover, the “Inhibition of the uptake of the P-gp substrate” value at P-gp [3] is “no inhibition”. Further, the “Substrate of P-gp (published evidence)” value was “Yes” with human P-gp [1]; “Yes” at P-gp [18]; “Yes” in the data set with P-gp [9]; “Yes/No” in the data set with P-gp [10]; “No” with human P-gp [11]; “No” at P-gp [19]. Moreover, the “Substrate of P-gp (published evidence)” value in the data set with mouse P-gp is reported as “Yes/No”; on P-gp [14] it was “No”. Also, on P-gp [4], the “Transport into the apical compartment, MDCKII-P-gp vs parental MDCKII cells” value is given as “more phenytoin was transported into the apical compartment”. In addition, the “Effect of verapamil or tariquidar treatment on apical to basolateral Papp” value on P-gp [5] was “not affected”. The “Accumulation in VBL100 cells compared with CEM cells” value on P-gp [6] is listed as “No significant decrease in accumulation or tariquidar inhibition”. In addition, in the data set on P-gp [7], the “Stimulation of P-gp ATPase activity (published evidence)” value was “No”. In addition, the “Calcein-AM P-gp inhibition assay (published evidence)” value in the data set on P-gp [8] is recorded as “No”. For the same molecule, the “Brain accumulation affected by rodent P-gp” value in the data set with P-gp [10] is reported as “affects brain accumulation”. Also, at P-gp [13], the “Effect of tariquidar on accumulation in hCMEC/D3 cells” value was “No effect of tariquidar”. The “Transport into the apical compartment, LLC-PK1-P-gp vs parental LLC-PK1 cells” value on P-gp [15] was “higher in LLC-PK1-P-gp cells and inhibitable by tariquidar”. For the same molecule, the “Polarised transport” value at P-gp [16] was “No polarised transport”.
